Patent US7652014B2, “Substituted 6-cyclohexylalkyl substituted 2-quinolinones and 2-quinoxalinones as poly(ADP-ribose) polymerase inhibitors” (Janssen Pharmaceutica, priority 2003, dated 2010)

Key:
PARP-1 enzyme [1] = target: T1, PARP-1 enzyme (Homo sapiens, UniProt P09874); assay: In vitro Scintillation Proximity Assay (SPA) for PARP-1 inhibitory activity; assay type: biochemical; settings: nicked DNA activated PARP-1, [3H]-NAD+, biotinylated histones; read-out: In vitro SPA pIC50 (converted)
T1 construct: made in house
T1 sequence (P09874 whole entry): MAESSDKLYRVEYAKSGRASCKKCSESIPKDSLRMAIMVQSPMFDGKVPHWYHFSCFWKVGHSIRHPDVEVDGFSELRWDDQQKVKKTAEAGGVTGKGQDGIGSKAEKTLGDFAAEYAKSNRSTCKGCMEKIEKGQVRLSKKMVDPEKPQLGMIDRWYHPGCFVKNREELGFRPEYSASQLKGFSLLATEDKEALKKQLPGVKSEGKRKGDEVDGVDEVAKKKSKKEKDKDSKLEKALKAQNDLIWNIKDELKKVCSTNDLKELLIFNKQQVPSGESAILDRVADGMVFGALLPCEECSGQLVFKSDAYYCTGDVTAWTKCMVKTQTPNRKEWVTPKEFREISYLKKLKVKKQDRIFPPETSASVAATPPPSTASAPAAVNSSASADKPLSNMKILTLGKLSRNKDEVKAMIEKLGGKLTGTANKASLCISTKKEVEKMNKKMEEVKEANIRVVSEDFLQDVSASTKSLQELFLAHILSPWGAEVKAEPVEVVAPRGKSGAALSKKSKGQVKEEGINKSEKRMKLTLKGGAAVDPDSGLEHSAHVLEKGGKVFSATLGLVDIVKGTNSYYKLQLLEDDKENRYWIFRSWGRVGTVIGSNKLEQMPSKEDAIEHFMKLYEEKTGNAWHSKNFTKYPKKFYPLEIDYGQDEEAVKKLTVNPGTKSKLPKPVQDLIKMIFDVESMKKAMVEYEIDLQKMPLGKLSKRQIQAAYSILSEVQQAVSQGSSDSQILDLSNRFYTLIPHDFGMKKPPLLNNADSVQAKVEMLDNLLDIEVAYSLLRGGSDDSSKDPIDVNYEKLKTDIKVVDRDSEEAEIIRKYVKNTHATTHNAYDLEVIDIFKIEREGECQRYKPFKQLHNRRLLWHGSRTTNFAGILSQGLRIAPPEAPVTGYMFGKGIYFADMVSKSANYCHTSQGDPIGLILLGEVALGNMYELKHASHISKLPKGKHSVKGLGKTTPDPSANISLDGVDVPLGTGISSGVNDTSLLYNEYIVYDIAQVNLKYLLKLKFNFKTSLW
Protocol: Pharmacological Example In Vitro Scintillation Proximity Assay (SPA) for PARP-1 Inhibitory Activity
Compounds of the present invention were tested in an in vitro assay based on SPA technology (proprietary to Amersham Pharmacia Biotech).
In principle, the assay relies upon the well established SPA technology for the detection of poly(ADP-ribosyl)ation of biotinylated target proteins, i.e histones. This ribosylation is induced using nicked DNA activated PARP-1 enzyme and [^3H]-nicotinamide adenine dinucleotide ([^3H]-NAD^+) as ADP-ribosyl donor.
As inducer of PARP-1 enzyme activity, nicked DNA was prepared. For this, 25 mg of DNA (supplier: Sigma) was dissolved in 25 ml DNAse buffer (10 mM Tris-HCl, pH 7.4; 0.5 mg/ml Bovine Serum Albumine (BSA); 5 mM MgCl2.6H2O and 1 mM KCl) to which 50 μl DNAse solution (1 mg/ml in 0.15 M NaCl) was added. After an incubation of 90 min. at 37° C., the reaction was terminated by adding 1.45 g NaCl, followed by a further incubation at 58° C. for 15 min. The reaction mixture was cooled on ice and dialysed at 4° C. for respectively 1.5 and 2 hours against 1.5 l of 0.2 M KCl, and twice against 1.5 l of 0.01 M KCl for 1.5 and 2 h respectively. The mixture was aliquoted and stored at −20° C. Histones (1 mg/ml, type II-A, supplier: Sigma) were biotinylated using the biotinylation kit of Amersham and stored aliquoted at −20° C. A stock solution of 100 mg/ml SPA poly(vinyl toluene) (PVT) beads (supplier: Amersham) was made in PBS. A stock solution of [^3H]-NAD^+ was made by adding 120 μl of [^3H]-NAD^+ (0.1 mCi/ml, supplier: NEN) to 6 ml incubation buffer (50 mM Tris/HCl, pH 8; 0.2 mM DTT; 4 mM MgCl2). A solution of 4 mM NAD^+ (supplier: Roche) was made in incubation buffer (from a 100 mM stock solution in water stored at −20° C.). The PARP-1 enzyme was produced using art known techniques, i.e. cloning and expression of the protein starting from human liver cDNA. Information concerning the used protein sequence of the PARP-1 enzyme including literature references can be found in the Swiss-Prot database under primary accession number P09874. Biotinylated histones and PVT-SPA beads were mixed and pre-incubated for 30 min. at room temperature. PARP-1 enzyme (concentration was lot dependent) was mixed with the nicked DNA and the mixture was pre-incubated for 30 min. at 4° C. Equal parts of this histones/PVT-SPA beads solution and PARP-1 enzyme/DNA solution were mixed and 75 μl of this mixture together with 1 μl of compound in DMSO and 25 μl of [^3H]-NAD^+ was added per well into a 96-well microtiterplate. The final concentrations in the incubation mixture were 2 μg/ml for the biotinylated histones, 2 mg/ml for the PVT-SPA beads, 2 μg/ml for the nicked DNA and between 5-10 μg/ml for the PARP-1 enzyme. After incubation of the mixture for 15 min. at room temperature, the reaction was terminated by adding 100 μl of 4 mM NAD^+ in incubation buffer (final concentration 2 mM) and plates were mixed.
The beads were allowed to sediment for at least 15 min. and plates transferred to a TopCountNXT™ (Packard) for scintillation counting, values were expressed as counts per minute (cpm). For each experiment, controls (containing PARP-1 enzyme and DMSO without compound), a blank incubation (containing DMSO but no PARP-1 enzyme or compound) and samples (containing PARP-1 enzyme and compound dissolved in DMSO) were run in parallel. All compounds tested were dissolved and eventually further diluted in DMSO. […] In each test, the blank value was subtracted from both the control and the sample values. The control sample represented maximal PARP-1 enzyme activity. For each sample, the amount of cpm was expressed as a percentage of the mean cpm value of the controls. When appropriate, IC50-values (concentration of the drug, needed to reduce the PARP-1 enzyme activity to 50% of the control) were computed using linear interpolation between the experimental points just above and below the 50% level. […]

PARP-1 enzyme [2] = target: T1, PARP-1 enzyme; assay: In vitro filtration assay for PARP-1 inhibitory activity; assay type: biochemical; settings: nicked DNA activated PARP-1, [32P]-NAD, histones; read-out: In vitro filtration assay pIC50 (converted)
Protocol: In Vitro Filtration Assay for PARP-1 Inhibitory Activity
Compounds of the present invention were tested in an in vitro filtration assay assessing PARP-1 activity (triggered in the presence of nicked DNA) by means of its histone poly (ADP-ribosyl)ation activity using [^32P]-NAD as ADP-ribosyl donor. The radioactive ribosylated histones were precipitated by trichloroacetic acid (TCA) in 96-well filterplates and the incorporated [^32P] measured using a scintillation counter A mixture of histones (stock solution: 5 mg/ml in H2O), NAD^+ (stock solution: 100 mM in H2O), and [^32P]-NAD^+ in incubation buffer (50 mM Tris/HCl, pH 8; 0.2 mM DTT; 4 mM MgCl2) was made. A mixture of the PARP-1 enzyme (5-10 μg/ml) and nicked DNA was also made. The nicked DNA was prepared as described in the in vitro SPA for PARP-1 inhibitory activity. Seventy-five μl of the PARP-1 enzyme/DNA mixture together with 1 μl of compound in DMSO and 25 μl of histones-NAD^+/[^32P]-NAD^+ mixture was added per well of a 96-well filterplate (0.45 μm, supplier Millipore). The final concentrations in the incubation mixture were 2 μg/ml for the histones, 0.1 mM for the NAD^+, 200 μM (0.5 μC) for the [^32P]-NAD^+ and 2 μg/ml for the nicked DNA. Plates were incubated for 15 min. at room temperature and the reaction was terminated by the addition of 10 μl ice cold 100% TCA followed by the addition of 10 μl ice-cold BSA solution (1% in H2O). The protein fraction was allowed to precipitate for 10 min. at 4° C. and plates were vacuum filtered. The plates were subsequently washed with, for each well, 1 ml of 10% ice cold TCA, 1 ml of 5% ice cold TCA and 1 ml of 5% TCA at room temperature. Finally 100 μl of scintillation solution (Microscint 40, Packard) was added to each well and the plates were transferred to a TopCountNXT™ (supplier: Packard) for scintillation counting and values were expressed as counts per minute (cpm). For each experiment, controls (containing PARP-1 enzyme and DMSO without compound), a blank incubation (containing DMSO but no PARP-1 enzyme or compound) and samples (containing PARP-1 enzyme and compound dissolved in DMSO) were run in parallel. All compounds tested were dissolved and eventually further diluted in DMSO. In first instance, compounds were tested at a concentration of 10^−5M. […] In each test, the blank value was subtracted from both the control and the sample values. The control sample represented maximal PARP-1 enzyme activity. For each sample, the amount of cpm was expressed as a percentage of the mean cpm value of the controls. When appropriate, IC50-values (concentration of the drug, needed to reduce the PARP-1 enzyme activity to 50% of the control) were computed using linear interpolation between the experimental points just above and below the 50% level. Herein the effects of test compounds are expressed as pIC50 (the negative log value of the IC50-value). As a reference compound, 4-amino-1,8-naphthalimide was included to validate the filtration assay.

SMILES	IC50 (PARP-1 enzyme [1]) [µM]	melting point [°C]	IC50 (PARP-1 enzyme [2]) [µM]
CCc1cc2cc(C(O)CN3CCCCC3)ccc2[nH]c1=O (stereo not drawn) [Co. No. 1]	0.329	172	0.349
CCc1cc2cc(C(C3CCCCCC3)N3CCC(=O)CC3)ccc2[nH]c1=O (stereo not drawn) [Co. No. 2]	0.232	218	0.568
CCOC(=O)C1CCN(C(C)Cc2ccc3[nH]c(=O)c(CC)nc3c2)CC1 (stereo not drawn) [Co. No. 3]	0.861	163	–
CCc1cc2cc(C(C3CCCCC3)N3CCC4(CC3)CO4)ccc2[nH]c1=O (stereo not drawn) [Co. No. 4]	0.3	200	1.52
CCc1cc2cc(C(C3CCCCC3)N3CCC(O)(c4cncn4C)CC3)ccc2[nH]c1=O (stereo not drawn) [Co. No. 6]	0.508	194	1.35
CCc1cc2cc(CN3CCN(Cc4ccccc4)CC3)ccc2[nH]c1=O [Co. No. 7]	0.0946	194	–
CCc1cc2cc(C(C3CC=CCC3)N3CCC(O)CC3)ccc2[nH]c1=O (stereo not drawn) [Co. No. 11]	0.184	196	0.785
CCc1cc2cc(C(c3cccs3)N3CCC(NCCOC)CC3)ccc2[nH]c1=O (stereo not drawn) [Co. No. 12]	0.188	–	2.27
CCc1cc2cc(C(O)CN3CCN(C)CC3)ccc2[nH]c1=O (stereo not drawn) [Co. No. 14]	0.388	–	1.84
CCc1cc2cc(C(O)CN3CCOCC3)ccc2[nH]c1=O (stereo not drawn) [Co. No. 15]	0.288	–	2.54
CCc1cc2cc(C(CC(C)C)N3CCC(=O)CC3)ccc2[nH]c1=O (stereo not drawn) [Co. No. 16]	0.23	–	1.84
CCc1cc2cc(C(C(CC)CC)N3CCC(=O)CC3)ccc2[nH]c1=O (stereo not drawn) [Co. No. 17]	0.383	–	2.56
CCc1nc2cc(C(C(C)C)N3CCC(=O)CC3)ccc2[nH]c1=O (stereo not drawn) [Co. No. 19]	0.757	–	–
CCc1cc2cc(C(c3cccnc3)N3CCC(=O)CC3)ccc2[nH]c1=O (stereo not drawn) [Co. No. 22]	0.198	–	1.18
CCc1cc2cc(C(c3ccsc3)N3CCC(=O)CC3)ccc2[nH]c1=O (stereo not drawn) [Co. No. 23]	0.232	–	1.26
CCc1cc2cc(C(C3CC=CCC3)N3CCC(=O)CC3)ccc2[nH]c1=O (stereo not drawn) [Co. No. 24]	0.277	–	1.33
CCc1nc2cc(C(C(C)C)N3CCC(c4n[nH]c5cc(F)ccc45)CC3)ccc2[nH]c1=O (stereo not drawn) [Co. No. 26]	0.536	–	–
CCc1cc2cc(C(O)C3CCN(Cc4ccccc4)CC3)ccc2[nH]c1=O (stereo not drawn) [Co. No. 27]	0.18	–	2.2
CCc1cc2cc(C(C3CCCCC3)N3CCC(NCc4cccnc4)CC3)ccc2[nH]c1=O (stereo not drawn) [Co. No. 31]	0.863	–	8.26
CCc1cc2cc(C(c3ccsc3)N3CCC(NCCOC)CC3)ccc2[nH]c1=O (stereo not drawn) [Co. No. 32]	0.196	–	2.83
CCCCC(c1ccc2[nH]c(=O)c(CC)cc2c1)N1CCC(NCCOC)CC1 (stereo not drawn) [Co. No. 33]	0.832	–	4.21
CCc1cc2cc(C(C3CCCCC3)N3CCC(O)CC3)ccc2[nH]c1=O (stereo not drawn) [Co. No. 34]	0.853	–	2.43
CCc1cc2cc(C(C3CCCCC3)N3CCC(N4CCOCC4)CC3)ccc2[nH]c1=O (stereo not drawn) [Co. No. 35]	0.64	–	3.4
CCc1cc2cc(C(=O)CN3CCOCC3)ccc2[nH]c1=O [Co. No. 36]	0.568	–	2.61
CCc1cc2cc(CCN3CCC(NCCOC)CC3)ccc2[nH]c1=O [Co. No. 37]	0.853	–	–

Next, values leading:

IC50 (PARP-1 enzyme [1]) [µM]	melting point [°C]	IC50 (PARP-1 enzyme [2]) [µM]	SMILES
0.507	181	5.06	CCc1cc2cc(C(CCN3CCN(C)CC3)C3CCCCC3)ccc2[nH]c1=O (stereo not drawn) [Co. No. 5]
0.873	122	6.73	CCc1cc2cc(C(OCCN(C)C)C3CCCCC3)ccc2[nH]c1=O (stereo not drawn) [Co. No. 8]
0.614	115	4.38	CCc1cc2cc([C@@H](OCCN(C)C)C3CCCCC3)ccc2[nH]c1=O [Co. No. 9]
> 1	–	–	CCc1cc2cc(C(OCCN(C)C)C3CCCCC3)ccc2[nH]c1=O (stereo not drawn) [Co. No. 10]
0.75	–	2.99	CCc1cc2cc(C(NCCOC)C3CCCCC3)ccc2[nH]c1=O (stereo not drawn) [Co. No. 18]
0.6	–	1.84	CCc1cc2cc(C(SCCN(C)C)C3CCCCC3)ccc2[nH]c1=O (stereo not drawn) [Co. No. 20]
0.902	–	–	CCc1cc2cc(C(C3CCCCC3)N3CCN(C)CC3)ccc2[nH]c1=O (stereo not drawn) [Co. No. 21]
1.11	–	6.01	CCc1cc2cc(C(NCCN(C)C)C3CCCCC3)ccc2[nH]c1=O (stereo not drawn) [Co. No. 25]
0.288	–	3.15	CCc1cc2cc(C(O)C3CCCCC3)ccc2[nH]c1=O (stereo not drawn) [Co. No. 28]
0.841	–	5.42	CCc1cc2cc([C@@H](NCCN(C)C)C3CCCCC3)ccc2[nH]c1=O [Co. No. 29]
1.28	–	9.18	CCc1cc2cc([C@@H](C3CCCCC3)N3CCN(CCOC)CC3)ccc2[nH]c1=O [Co. No. 30]
